These results are taken from patent publication US10307413B2, “Tetrahydro- and dihydro-isoquinoline PRMT5 inhibitors and uses thereof” (Epizyme, Inc., priority 2013, dated 2019).

Experiment [1] relates to Z-138 cell line. The experiment can be described thus: Z-138 Proliferation Assay (Cell Titer Glo, 5 days). Format: cell-based. The following applies: Homo sapiens, 120 h; Z-138 cells, 5 days; read-out: Proliferation EC50. Summed up: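 Viability via CellTiter-Glo luminescence (ATP) after 5-day incubation at 37 °C, 5% CO2. Compounds tested in triplicate, nine 3-fold steps, highest final concentration 20 μM in 0.2% DMSO; 50% inhibitory concentration by 4-parameter fit of normalized curves.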

Experiment [2] concerns the target PRMT5/MEP50 (Homo sapiens (Human), UniProt O14744). In words: PRMT5 Biochemical Assay (PRMT5/MEP50 enzyme assay on peptide substrate, 3H-SAM Flashplate). An excerpt: S-adenosylmethionine (SAM), S-adenosylhomocysteine (SAH), bicine, KCl, Tween20, dimethylsulfoxide (DMSO), bovine skin gelatin (BSG), and Tris(2-carboxyethyl)phosphine hydrochloride solution (TCEP) were purchased from Sigma-Aldrich at the highest level of purity possible. ^3H-SAM was purchase from American Radiolabeled Chemicals with a specific activity of 80 Ci/mmol. 384-well streptavidin Flashplates were purchased from PerkinElmer.
Peptide representative of human histone H4 residues 1-15 was synthesized with a C-terminal linker-affinity tag motif and a C-terminal amide cap by 21st Century Biochemicals.
The amplified genes were sublconed into pENTR/D/TEV (Life Technologies) and subsequently transferred by Gateway™ attL×attR recombination to pDEST8 baculovirus expression vector (Life Technologies).
Protein over-expression was accomplished by infecting exponentially growing Spodoptera frugiperda (SF9) cell culture at 1.2×10^6 cell/ml with a 5000 fold dilution of BIIC stock. Infections were carried out at 27° C. for 72 hours, harvested by centrifugation, and stored at −80° C. for purification.
Flag-PRMT5/6His-MeP50 was eluted with 300 mM Imidazole in the same buffer.
General Procedure for PRMT5/MEP50 Enzyme Assays on Peptide Substrates.
The assays were all performed in a buffer consisting of 20 mM Bicine (pH=7.6), 1 mM TCEP, 0.005% BSG, and 0.002% Tween20, prepared on the day of use. […] DMSO (1 ul) was added to Columns 11, 12, 23, 24, rows A-H for the maximum signal control and 1 ul of SAH, a known product and inhibitor of PRMT5/MEP50, was added to columns 11, 12, 23, 24, rows I-P for the minimum signal control. A cocktail (40 ul) containing the PRMT5/MEP50 enzyme and the peptide was added by Multidrop Combi (Thermo-Fisher). The compounds were allowed to incubate with PRMT5/MEP50 for 30 min at 25 degrees Celsius, then a cocktail (10 ul) containing ^3H-SAM was added to initiate the reaction (final volume=51 ul). […] The assays were stopped by the addition of non-radioactive SAM (10 ul) to a final concentration of 600 uM, which dilutes the ^3H-SAM to a level where its incorporation into the peptide substrate is no longer detectable. 50 ul of the reaction in the 384-well polypropylene plate was then transferred to a 384-well Flashplate and the biotinylated peptides were allowed to bind to the streptavidin surface for at least 1 hour before being washed three times with 0.1% Tween20 in a Biotek ELx405 plate washer. The plates were then read in a PerkinElmer TopCount plate reader to measure the quantity of ^3H-labeled peptide bound to the Flashplate surface, measured as disintegrations per minute (dpm) or alternatively, referred to as counts per minute (cpm).
[formula] [formula] Where dpm=disintegrations per minute, cmpd=signal in assay well, and min and max are the respective minimum and maximum signal controls.
[formula] [formula] Where top and bottom are the normally allowed to float, but may be fixed at 100 or 0 respectively in a 3-parameter fit. The Hill Coefficient normally allowed to float but may also be fixed at 1 in a 3-parameter fit. Y is the % inhibition and X is the compound concentration.

Experiment [3] deals with symmetric di-methyl arginine in Z-138 cells. The experiment can be described thus: Z-138 Methylation Assay (In Cell Western for symmetric di-methyl arginine and DNA content). Type of experiment: cell-based. The following applies: Homo sapiens, read-out: ICW EC50. A digest of the protocol:
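In-cell western: symmetric di-methyl arginine signal ratioed to DRAQ5 DNA content after 96 h compound exposure of Z-138 cells seeded at 50,000 cells/mL.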

Chain of PRMT5/MEP50 (O14744 other isoform, or with tags, fused parts or gaps): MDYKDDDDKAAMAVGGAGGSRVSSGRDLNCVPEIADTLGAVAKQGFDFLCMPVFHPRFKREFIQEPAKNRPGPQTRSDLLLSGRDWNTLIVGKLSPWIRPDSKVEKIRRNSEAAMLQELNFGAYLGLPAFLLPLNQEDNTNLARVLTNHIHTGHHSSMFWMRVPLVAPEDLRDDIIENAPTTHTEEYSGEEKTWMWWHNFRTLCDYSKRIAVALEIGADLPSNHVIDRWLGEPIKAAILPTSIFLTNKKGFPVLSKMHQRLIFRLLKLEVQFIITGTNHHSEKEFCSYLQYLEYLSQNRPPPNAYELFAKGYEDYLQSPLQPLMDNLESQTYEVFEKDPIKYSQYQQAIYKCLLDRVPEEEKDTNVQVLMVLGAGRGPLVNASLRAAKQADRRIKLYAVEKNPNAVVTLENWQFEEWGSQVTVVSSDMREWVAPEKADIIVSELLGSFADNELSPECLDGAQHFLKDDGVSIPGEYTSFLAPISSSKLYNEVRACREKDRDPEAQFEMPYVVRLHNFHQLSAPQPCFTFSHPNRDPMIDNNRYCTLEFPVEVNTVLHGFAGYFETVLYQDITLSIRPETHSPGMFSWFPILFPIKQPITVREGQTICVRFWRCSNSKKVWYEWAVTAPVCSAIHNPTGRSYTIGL
Chain of PRMT5/MEP50 (Q9BQA1 other isoform, or with tags, fused parts or gaps partner): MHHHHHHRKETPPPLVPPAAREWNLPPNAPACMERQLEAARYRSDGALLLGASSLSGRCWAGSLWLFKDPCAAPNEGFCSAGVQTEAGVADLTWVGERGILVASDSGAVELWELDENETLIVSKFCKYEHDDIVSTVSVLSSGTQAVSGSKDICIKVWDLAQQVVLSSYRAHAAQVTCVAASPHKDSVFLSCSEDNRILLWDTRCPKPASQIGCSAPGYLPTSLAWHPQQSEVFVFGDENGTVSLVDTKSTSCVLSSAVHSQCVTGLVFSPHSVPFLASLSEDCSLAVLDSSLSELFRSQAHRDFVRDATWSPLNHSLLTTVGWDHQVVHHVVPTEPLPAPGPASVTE

On to `O=C(NC[C@H](O)CN1CCc2ccccc2C1)c1ccnc(OC2CCC2)c1` [Compound 350], for which the EC50 is 101 to 1000 nM in experiment [1] and below 100 nM in experiment [3]. For the same compound, the concentration for half-maximal inhibition (IC50) in experiment [2] was below 100 nM.
As to `O=C(NC[C@H](O)CN1CCc2ccccc2C1)c1cc(N[C@H]2CCOC2)ncn1` [Compound 351], the values for the EC50 in experiment [1] and in experiment [3] were 101 to 1000 nM and below 100 nM, respectively. Also, the IC50 in experiment [2] is below 100 nM.
For `COCCNc1cc(C(=O)NC[C@H](O)CN2CCc3ccccc3C2)ncn1` [Compound 352], the EC50 was 1000 to 10000 nM in experiment [1] and below 100 nM in experiment [3]. The IC50 in experiment [2] is 101 to 1000 nM.
Turning to `CN(C)CCNc1cc(C(=O)NC[C@H](O)CN2CCc3ccccc3C2)ncn1` [Compound 353], the EC50 fell in the range of 10000 to 50000 nM in experiment [1] and 101 to 1000 nM in experiment [3]. Besides, the IC50 in experiment [2] was below 100 nM.
For `CN(C)CCCNc1cc(C(=O)NC[C@H](O)CN2CCc3ccccc3C2)ncn1` [Compound 354], in that order: 1000 to 10000 nM, below 100 nM and below 100 nM.
Regarding `O=C(NC[C@H](O)CN1CCc2ccccc2C1)c1cc(NC2CCC2)ncn1` [Compound 355], the EC50 in experiment [1] and in experiment [3] was below 100 nM each time. Further, in experiment [2], the IC50 was below 100 nM.
Consider `Cc1cnc(NC2CN(CC(F)(F)F)C2)cc1C(=O)NC[C@H](O)CN1CCc2ccccc2C1` [Compound 356], for which the EC50 in experiment [1] was above 20000 nM; in experiment [3], above 1000 nM. Also, in experiment [2], the IC50 lay in the range of 101 to 1000 nM.
For `CN(C[C@H](O)CN1CCc2ccccc2C1)C(=O)c1ccnc(NC2CCOCC2)c1` [Compound 357], in that order: 1000 to 10000 nM, below 100 nM and 101 to 1000 nM.
For `CN(C[C@H](O)CN1CCc2ccccc2C1)C(=O)c1ccnc(N(C)C2CCOCC2)c1` [Compound 358], in that order: above 20000 nM, 101 to 1000 nM and 1000 to 10000 nM.
`CN(CCNCC(F)(F)F)c1cc(C(=O)NC[C@H](O)CN2CCc3ccccc3C2)ccn1` [Compound 359]: the values for the EC50 in experiment [1] and in experiment [3] were 1000 to 10000 nM and 101 to 1000 nM, respectively. For the same compound, the IC50 in experiment [2] is below 100 nM.
The corresponding values for `NCCOc1ccc2cc(C(=O)NC[C@H](O)CN3CCc4ccccc4C3)ccc2c1` [Compound 360] are 1000 to 10000 nM, below 100 nM and 101 to 1000 nM.
Consider `CNCCOc1ccc2cc(C(=O)NC[C@H](O)CN3CCc4ccccc4C3)ccc2c1` [Compound 361], for which the EC50 in experiment [1] was 1000 to 10000 nM; in experiment [3], below 100 nM. Besides, the IC50 in experiment [2] lay in the range of 101 to 1000 nM.
For `O=C(NC[C@H](O)CN1CCc2ccccc2C1)c1ccc(OCCCN2CCCCC2)cc1` [Compound 362], in that order: 101 to 1000 nM, below 100 nM and 101 to 1000 nM.
For `O=C(NC[C@H](O)CN1CCc2ccccc2C1)c1ccc(OCCCN2CCOCC2)cc1` [Compound 363], in that order: 1000 to 10000 nM, below 100 nM and below 100 nM.
As to `CN(C[C@H](O)CN1CCc2ccccc2C1)C(=O)c1cc(NC2COC2)ncn1` [Compound 364], the EC50 in experiment [1] was in the range of 1000 to 10000 nM; in experiment [3], 101 to 1000 nM. The IC50 in experiment [2] is 101 to 1000 nM.
With `O=C(NC[C@H](O)CN1CCc2ccccc2C1)c1cc(N[C@@H]2CCOC2)ncn1` [Compound 365], the EC50 is 101 to 1000 nM in experiment [1] and below 100 nM in experiment [3]. Also, the IC50 in experiment [2] is below 100 nM.
As to `O=C(NC[C@H](O)CN1CCc2ccccc2C1)c1cncc(NC2COC2)n1` [Compound 366], the EC50 was above 20000 nM in experiment [1] and 101 to 1000 nM in experiment [3]. In addition, in experiment [2], the concentration for half-maximal inhibition (IC50) was 101 to 1000 nM.
As for `O=C(NC[C@H](O)CN1CCc2ccccc2C1)c1ccc2cc(OCCNCCO)ccc2c1` [Compound 368], the EC50 in experiment [1] was 1000 to 10000 nM; in experiment [3], below 100 nM. The IC50 in experiment [2] was below 100 nM.
Turning to `COCCNCCOc1ccc2cc(C(=O)NC[C@H](O)CN3CCc4ccccc4C3)ccc2c1` [Compound 369], the figures for the EC50 in experiment [1] and in experiment [3] were 1000 to 10000 nM and below 100 nM, respectively. In addition, the IC50 in experiment [2] is below 100 nM.
`CN(C)CCOc1ccc2cc(C(=O)NC[C@H](O)CN3CCc4ccccc4C3)ccc2c1` [Compound 370]: the EC50 in experiment [1] was 1000 to 10000 nM; in experiment [3], below 100 nM. In addition, in experiment [2], the 50% inhibitory concentration (IC50) was below 100 nM.
Consider `O=C(NC[C@H](O)CN1CCc2ccccc2C1)c1ccc(OCCN2CCCCC2)cc1` [Compound 371], for which the EC50 was 1000 to 10000 nM in experiment [1] and below 100 nM in experiment [3]. Also, the IC50 in experiment [2] was below 100 nM.
As for `O=C(NC[C@H](O)CN1CCc2ccccc2C1)c1ccc(OCCCN2CCCC2)cc1` [Compound 372], the EC50 is 101 to 1000 nM in experiment [1] and below 100 nM in experiment [3]. Besides, the IC50 in experiment [2] was below 100 nM.
`O=C(NC[C@H](O)CN1CCc2ccccc2C1)c1ccc(OCCCN2CCC2)cc1` [Compound 373]: the EC50 in experiment [1] was 1000 to 10000 nM; in experiment [3], below 100 nM. Also, in experiment [2], the IC50 was below 100 nM.
In the case of `CC(C)NCCCOc1ccc(C(=O)NC[C@H](O)CN2CCc3ccccc3C2)cc1` [Compound 374], the EC50 in experiment [1] is 1000 to 10000 nM; in experiment [3] it was below 100 nM. The IC50 in experiment [2] was below 100 nM.
As for `O=C(NC[C@H](O)CN1CCc2ccccc2C1)c1cc(NC2CCC2)nc(N2CCCCC2)c1` [Compound 375], the figures for the EC50 in experiment [1] and in experiment [3] were 101 to 1000 nM and below 100 nM, respectively. The IC50 in experiment [2] is below 100 nM.
Take `CN(C)[C@H]1C[C@H](Nc2cc(C(=O)NC[C@H](O)CN3CCc4ccccc4C3)ncn2)C1` [Compound 376]: the EC50 was 1000 to 10000 nM in experiment [1] and below 100 nM in experiment [3]. Moreover, the IC50 in experiment [2] is below 100 nM.
On to `CN(C)[C@H]1C[C@@H](Nc2cc(C(=O)NC[C@H](O)CN3CCc4ccccc4C3)ncn2)C1` [Compound 377], for which the EC50 in experiment [1] was in the range of 1000 to 10000 nM; in experiment [3], 101 to 1000 nM. Also, the IC50 in experiment [2] is below 100 nM.
The corresponding values for `O=C(NC[C@H](O)CN1CCc2ccccc2C1)c1ccnc(NC2COC2)c1` [Compound 378] are above 20000 nM, above 1000 nM and below 100 nM.
The corresponding values for `Cc1cnc(NC2CN(S(C)(=O)=O)C2)cc1C(=O)NC[C@H](O)CN1CCc2ccccc2C1` [Compound 379] are 1000 to 10000 nM, below 100 nM and below 100 nM.
For `CC(=O)N1CC(Nc2cc(C(=O)NC[C@H](O)CN3CCc4ccccc4C3)c(C)cn2)C1` [Compound 380], in that order: 101 to 1000 nM, below 100 nM and below 100 nM.
On to `O=C(NC[C@H](O)CN1CCc2ccccc2C1)c1ccnc(Nc2cc[nH]n2)c1` [Compound 381], for which the EC50 is 1000 to 10000 nM in experiment [1] and below 100 nM in experiment [3]. Moreover, the IC50 in experiment [2] is below 100 nM.
For the compound `O=C(NC[C@H](O)CN1CCc2ccccc2C1)c1ccnc(Nc2ccccn2)c1` [Compound 382], the EC50 was 101 to 1000 nM in experiment [1] and below 100 nM in experiment [3]. The IC50 in experiment [2] is below 100 nM.
Take `O=C(NC[C@H](O)CN1CCc2ccccc2C1)c1ccc(OCCN2CCCC2)cc1` [Compound 383]: the EC50 was 1000 to 10000 nM in experiment [1] and below 100 nM in experiment [3]. Besides, in experiment [2], the IC50 was below 100 nM.
As to `CN(C)CCOc1ccc(C(=O)NC[C@H](O)CN2CCc3ccccc3C2)cc1` [Compound 384], the EC50 in experiment [1] was 1000 to 10000 nM; in experiment [3], below 100 nM. In addition, the 50% inhibitory concentration (IC50) in experiment [2] is below 100 nM.
With `CCN(C)CCOc1ccc(C(=O)NC[C@H](O)CN2CCc3ccccc3C2)cc1` [Compound 385], the EC50 was 1000 to 10000 nM in experiment [1] and below 100 nM in experiment [3]. Besides, in experiment [2], the IC50 is below 100 nM.
